According to patent US8822449B2, “Substituted aminoindanes and analogs thereof, and the pharmaceutical use thereof” (Sanofi, priority 2008, dated 2014):

These compounds were tested against T1, sodium-proton exchanger of subtype 3 (NHE3) (Homo sapiens, UniProt P48764) (assay: Recovery of intracellular pH (pHi) after acidification in LAP1 cells stably expressing NHE3 (BCECF fluorescence, FLIPR)). Settings: Activity range (inhibitory effect on NHE3), LAP1 cells stably expressing NHE3; pH recovery after acidification; range 1 is % inhibition at 10 μM.
T1 construct: expressed in transfected cells
T1 sequence (P48764 26-834): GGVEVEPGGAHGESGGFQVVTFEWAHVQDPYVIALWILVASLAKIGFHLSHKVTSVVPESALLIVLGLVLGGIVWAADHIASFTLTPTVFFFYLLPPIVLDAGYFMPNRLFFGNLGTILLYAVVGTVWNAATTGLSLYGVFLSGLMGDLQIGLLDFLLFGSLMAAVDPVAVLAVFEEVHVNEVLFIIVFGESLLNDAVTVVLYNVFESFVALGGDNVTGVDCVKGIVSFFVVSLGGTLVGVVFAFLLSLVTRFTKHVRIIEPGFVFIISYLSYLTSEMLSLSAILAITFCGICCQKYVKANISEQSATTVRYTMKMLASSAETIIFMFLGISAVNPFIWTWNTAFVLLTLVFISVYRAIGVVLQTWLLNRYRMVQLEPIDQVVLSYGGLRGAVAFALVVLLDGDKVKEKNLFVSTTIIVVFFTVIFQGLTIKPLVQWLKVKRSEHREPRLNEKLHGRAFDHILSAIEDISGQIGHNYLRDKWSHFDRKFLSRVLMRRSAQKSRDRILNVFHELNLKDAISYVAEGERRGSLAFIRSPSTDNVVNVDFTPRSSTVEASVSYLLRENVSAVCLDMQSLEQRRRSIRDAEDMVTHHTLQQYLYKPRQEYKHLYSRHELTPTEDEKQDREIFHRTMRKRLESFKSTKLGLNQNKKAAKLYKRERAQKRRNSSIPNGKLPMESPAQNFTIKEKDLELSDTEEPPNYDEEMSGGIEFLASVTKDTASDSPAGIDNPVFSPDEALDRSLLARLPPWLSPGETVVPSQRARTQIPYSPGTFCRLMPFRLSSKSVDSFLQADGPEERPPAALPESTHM
Format: cell-based

| SMILES | IC50 [µM] |
| --- | --- |
| CCN(CC)[C@@H]1Cc2ccccc2[C@H]1Oc1ccc(N2CCNCC2)cc1 (racemic) [Example 627, Diethyl-[rac-trans-(1,2)-1-(4-piperazin-1-ylphenoxy)indan-2-yl]amine] | 1 to 10 |

Same assay, conditions: LAP1 cells stably expressing NHE3; pH recovery after acidification; range 1 is % inhibition at 10 μM; read-out: Activity range (inhibitory effect on NHE3)

| IC50 [µM] | inhibition at 10 µM [%] | SMILES |
| --- | --- | --- |
| < 1 |  | N[C@@H]1CCCN([C@@H]2Cc3ccccc3[C@H]2Oc2ccc(-n3cncn3)cc2)C1 (racemic) [Example 62, (R)-1-[rac-trans-(1,2)-1-(4-[1,2,4]triazol-1-ylphenoxy)indan-2-yl]piperidin-3-ylamine] |
| 1 to 10 |  | CN(C1CCCC1)[C@@H]1Cc2ccccc2[C@H]1Oc1ccc(S(C)(=O)=O)cc1 (racemic) [Example 730, Cyclopentyl-[rac-trans-(1,2)-1-(4-methanesulfonyl-phenoxy)-indan-2-yl]-methyl-amine] |
|  | 20 to 50 | CS(=O)(=O)c1ccccc1O[C@H]1c2ccccc2CC[C@@H]1N1CCOCC1 (racemic) [Example 506, 4-[rac-trans-(1,2)-1-(2-methanesulfonylphenoxy)-1,2,3,4-tetrahydronaphthalen-2-yl]morpholine] |
| 1 to 10 |  | Cn1ccn(-c2ccc(F)c(O[C@H]3c4cc(Cl)cc(F)c4C[C@@H]3NC3CCCC3)c2)c1=O [Example 756, 1-[3-(trans-(1S,2S)-6-Chloro-2-cyclopentylamino-4-fluoro-indan-1-yloxy)-4-fluoro-phenyl]-3-methyl-1,3-dihydro-imidazol-2-one] |
| 1 to 10 |  | CS(=O)(=O)c1ccc(O[C@H]2c3cc(Cl)cc(Cl)c3C[C@@H]2N2CC[C@@H](CO)C2)cc1 [Example 227, {(R)-1-[trans-(1S,2S)-4,6-dichloro-1-(4-methanesulfonylphenoxy)indan-2-yl]pyrrolidin-3-yl}methanol] |
| < 1 |  | COc1cccc(F)c1O[C@@H]1c2ccccc2C[C@H]1N1CCC(CN)CC1 (racemic) [Example 604, C-{1-[rac-trans-(1,2)-1-(2-fluoro-6-methoxyphenoxy)indan-2-yl]piperidin-4-yl}methylamine] |
|  | 20 to 50 | Cc1ccc(O[C@H]2c3ccccc3CC[C@@H]2N2CCC[C@H](N)C2)c(Cl)c1 (racemic) [Example 152, (S)-1-[rac-trans-(1,2)-1-(2-chloro-4-methylphenoxy)-1,2,3,4-tetrahydronaphthalen-2-yl]piperidin-3-ylamine] |
| < 1 |  | Cc1nnc(C)n1-c1ccc(O[C@H]2c3cc(Cl)cc(Cl)c3C[C@@H]2N2CC[C@@H](F)C2)cc1 [Example 561, 4-{4-[trans-(1S,2S)-4,6-dichloro-2-((R)-3-fluoropyrrolidin-1-yl)indan-1-yloxy]phenyl}-3,5-dimethyl-4H-[1,2,4]triazole] |
| 1 to 10 |  | CCCc1ccc(NC(C)=O)cc1O[C@H]1c2ccccc2CC[C@@H]1N1CCC[C@H](N)C1 (racemic) [Example 683, N-{3-[rac-trans-(1,2)-2-((S)-3-aminopiperidin-1-yl)-1,2,3,4-tetrahydronaphthalen-1-yloxy]-4-propylphenyl}acetamide] |
| 1 to 10 |  | CCOC(=O)c1ncoc1-c1ccc(O[C@H]2c3ccccc3CC[C@@H]2N2CCC[C@@H](N)C2)cc1 (racemic) [Example 583, 5-{4-[rac-trans-(1,2)-2-((R)-3-aminopiperidin-1-yl)-1,2,3,4-tetrahydronaphthalen-1-yloxy]phenyl}oxazole-4-carboxylic acid ethyl ester] |
| < 1 |  | C[C@H]1CN([C@H]2Cc3c(Cl)cc(Cl)cc3[C@@H]2Oc2ccc(S(C)(=O)=O)cc2)CCN1 [Example 197, (S)-1-[trans-(1S,2S)-4,6-dichloro-1-(4-methanesulfonylphenoxy)indan-2-yl]-3-methylpiperazine] |
| 1 to 10 |  | c1cc(CN2CCCCC2)cc(O[C@@H]2c3ccccc3C[C@H]2N2C[C@H]3CNC[C@H]3C2)c1 (racemic) [Example 14, 2-[rac-trans-(1,2)-1-(3-piperidin-1-ylmethylphenoxy)indan-2-yl]octahydropyrrolo[3,4-c]pyrrole] |
| 1 to 10 |  | Cc1nc(C(C)(C)C)cn1-c1ccc(O[C@H]2c3cc(Cl)cc(Cl)c3C[C@@H]2N2CC[C@@H](O)C2)c(F)c1 [Example 729, (R)-1-{trans-(1S,2S)-1-[4-(4-tert-Butyl-2-methyl-imidazol-1-yl)-2-fluoro-phenoxy]-4,6-dichloro-indan-2-yl}-pyrrolidin-3-ol] |
| 1 to 10 |  | Cc1nnnn1-c1ccc(O[C@H]2c3cc(Cl)cc(Cl)c3C[C@@H]2N2CC[C@@H](O)C2)cc1 [Example 112, (R)-1-{(1S,2S)-4,6-dichloro-1-[4-(5-methyltetrazol-1-yl)phenoxy]indan-2-yl}pyrrolidin-3-ol] |
| 1 to 10 |  | Fc1ccc(O[C@@H]2c3ccccc3C[C@H]2N2C[C@H]3CNC[C@H]3C2)c(F)c1 (racemic) [Example 9, 2-[rac-trans-(1,2)-1-(2,4-difluorophenoxy)indan-2-yl]octahydropyrrolo[3,4-c]pyrrole] |
| < 1 |  | CN1CCN(c2ccc(O[C@H]3c4cc(Cl)cc(Cl)c4C[C@@H]3N3CC[C@@H](O)C3)c(F)c2)C1=O [Example 330, 1-{4-[trans-(1S,2S)-4,6-dichloro-2-((R)-3-hydroxypyrrolidin-1-yl)indan-1-yloxy]-3-fluorophenyl}-3-methylimidazolidin-2-one] |
| < 1 |  | N#Cc1ccc(O[C@H]2c3ccccc3CC[C@@H]2N2CCC[C@@H](N)C2)cc1 (racemic) [Example 516, 4-[rac-trans-(1,2)-2-((R)-3-aminopiperidin-1-yl)-1,2,3,4-tetrahydronaphthalen-1-yloxy]benzonitrile] |
| 1 to 10 |  | c1ccc2c(c1)C[C@H](N1CCCC1)[C@H]2Oc1cccc2cccnc12 (racemic) [Example 595, 8-(rac-trans-(1,2)-2-pyrrolidin-1-ylindan-1-yloxy)quinoline] |
| 1 to 10 |  | CCn1cnn(-c2ccc(O[C@H]3c4cc(Cl)cc(Cl)c4C[C@@H]3N3CC[C@@H](O)C3)cc2)c1=O [Example 736, 2-{4-[trans-(1S,2S)-4,6-Dichloro-2-((R)-3-hydroxy-pyrrolidin-1-yl)-indan-1-yloxy]-phenyl}-4-ethyl-2,4-dihydro-[1,2,4]triazol-3-one] |
| 1 to 10 |  | CC(=O)Nc1cccc(O[C@H]2c3c(Cl)cccc3C[C@@H]2N2CCCC2)c1 (racemic) [Example 662, N-[3-(rac-trans-(1,2)-7-chloro-2-pyrrolidin-1-ylindan-1-yloxy)phenyl]acetamide] |
| 1 to 10 |  | Cc1cc(O[C@H]2c3cc(F)cc(Cl)c3C[C@@H]2N2CCC[C@@H](N)C2)ccc1S(=O)(=O)C(F)(F)F (racemic) [Example 90, (R)-1-[rac-trans-(1,2)-4-chloro-6-fluoro-1-(3-methyl-4-trifluoromethanesulfonylphenoxy)indan-2-yl]piperidin-3-ylamine] |
| 1 to 10 |  | NC(=O)c1cc(Cl)ccc1O[C@H]1c2ccccc2CC[C@@H]1N1CCC[C@@H](N)C1 (racemic) [Example 365, 2-[rac-trans-(1,2)-2-((R)-3-aminopiperidin-1-yl)-1,2,3,4-tetrahydronaphthalen-1-yloxy]-5-chlorobenzamide] |
| 1 to 10 |  | N#Cc1ccc(O[C@H]2c3ccccc3CC[C@@H]2N2CCC[C@@H](N)C2)c(F)c1 (racemic) [Example 515, 4-[rac-trans-(1,2)-2-((R)-3-aminopiperidin-1-yl)-1,2,3,4-tetrahydronaphthalen-1-yloxy]-3-fluorobenzonitrile] |
|  | 20 to 50 | CS(=O)(=O)c1cccc(O[C@H]2c3ccccc3C[C@@H]2N2CCCC2)c1 (racemic) [Example 269, 1-[rac-trans-(1,2)-1-(3-methanesulfonylphenoxy)indan-2-yl]pyrrolidine] |
| 1 to 10 |  | CO[C@@H]1CCN(C2Cc3ccccc3C2Oc2cccc(NC(C)=O)c2)C1 (mixture of isomers) [Example 682, N-{3-[rac-trans-(1,2)-2-((R)-3-methoxypyrrolidin-1-yl)indan-1-yloxy]phenyl}acetamide] |
| 1 to 10 |  | Cc1cc(O[C@@H]2c3ccccc3C[C@H]2N2CCC(CN)C2)cc(C)c1C#N (mixture of isomers) [Example 539, 4-[rac-trans-(1,2)-2-(3-aminomethylpyrrolidin-1-yl)indan-1-yloxy]-2,6-dimethylbenzonitrile] |
| 1 to 10 |  | NC(=O)Cc1c[nH]c2ccc(O[C@@H]3c4ccccc4C[C@H]3N3CCC(N)C3)cc12 (mixture of isomers) [Example 387, 2-{5-[rac-trans-(1,2)-2-(3-aminopyrrolidin-1-yl)indan-1-yloxy]-1H-indol-3-yl}acetamide] |
| < 1 |  | COC(=O)c1nccn1-c1ccc(O[C@H]2c3cc(Cl)cc(Cl)c3C[C@@H]2N2CC[C@@H](O)C2)c(F)c1 [Example 740, 1-{4-[trans-(1S,2S)-4,6-Dichloro-2-((R)-3-hydroxy-pyrrolidin-1-yl)-indan-1-yloxy]-3-fluoro-phenyl}-1H-imidazole-2-carboxylic acid methyl ester] |
